This is an account of results in patent publication US20250295579A1, “SKIN CARE COMPOSITION AND USES THEREOF” (S-BIOMEDIC NV, priority 2022, published 2025).

What all share (experiment): Influence of cosmetic ingredients on C. acnes growth in 96-well plates (OD600)
Holding throughout (type): cell-based, Cutibacterium acnes

One assay has as its system C. acnes H1 strain. On the procedure: (§1) One day before the experiment: starter bacterial cultures of C. acnes A1, D1, H1 and K8 strains from the working cell bank (WCB) glycerol stocks were prepared in a final volume of 15 ml. The C. acnes strains were isolated from healthy volunteers and they were characterized for their growth, 16S and SLST sequence to identify the specific strain. The volumes of WCB were 1 ml for A1 and 300 μl for D1, H1, and K8. The cultures were incubated overnight at 37° C.
(§2) At the day of the experiment, after 24 h incubation, inoculums were taken out of the incubator and homogenized with vortex. 50 μl aliquots were separated from each inoculum to 1.5 ml tubes and their OD600 was measured by Nanodrop.
(§3) Each aliquot was measured twice and its OD600 was determined by calculating the mean value. The tubes were centrifuged (3000 rcf, 5 min) and the supernatant was discarded. The pellet was resuspended in 15 ml of PBS (phosphate buffered saline). This washing, consisting of centrifugation, discarding the supernatant, and resuspension was repeated. Then, the OD600 was adjusted in PBS to 2 for each strain. Small aliquots were separated and read on Nanodrop again at the end of this process to ensure a starting OD600 of 2 (+/−0.2) in the bacterial cultures.
(§4) All the ingredients were tested in either of the two different media: PBS 3% w/v Glucose and PBS 1% w/v Peptone. Additionally, all strains were grown on PBS and PBS 3% w/v Glucose 1% w/v Peptone, as negative and positive control, respectively.
(§5) Medium was prepared at 2.5×concentration and then diluted to 1× when mixed with the ingredient and inoculum into the test plates.
(§6) PBS 7.5% w/v Glucose media was filter sterilized (Millipore pump). 50% w/v Peptone diluted in ultrapure water (Milli-Q) was prepared, autoclaved and then diluted to 2.5% w/v with PBS. PBS 7.5% w/v Glucose 2.5% w/v peptone media was prepared diluting 50% Peptone on filtered PBS 7.125% Glucose.
(§7) The range of concentrations tested was based on the concentration that the chosen compound could have in the final cosmetic product. Three different concentrations were tested for each ingredient: maximum concentration, minimum concentration and a concentration in the middle between the maximum and minimum concentration (half of the highest one).
(§8) All compounds were prepared on milliQ water. 50 ml of stocks for each ingredient were prepared at double of the highest concentration to be tested. After solubilization, the ingredients were filter sterilized.
(§9) The experiment was performed in transparent 96-well plates. Each one of them contained one media (either peptone or glucose), one strain inoculum and either of the ingredients. The final volume in each well was 200 μl: 100 μl of 2× ingredient, 80 μl of 2.5× medium and 20 μl of bacterial inoculum of OD600. Triplicates were done for every condition. Controls without ingredient and without bacteria were included in this experiment to detect possible contaminations.
(§10) One 96-well 2 ml deep well-plate was used for each batch. The double concentrated ingredients were distributed manually on the deep well plate and the corresponding serial dilutions were performed on PBS with an automatic multichannel pipette. Then, the content of each deep well plate was distributed to 8 different 96-standard well plate with Zephyr SPE workstation (automated liquid handler).
(§11) 100 μl of ingredient per well were transferred to each plate. The zephyr program contained a resuspension step on the deep well plate and a step in which the tips leaned on the sides of each well of the plates to ensure the accurate volume disposal.
(§12) Once the 100 μl of ingredient were transferred to each plate, 80 μl of either Glucose or Peptone medium was poured into the plate with Multidrop Combi Plate dispenser (Thermo Fisher). The multidrop was also used to dispense 20 μl per well of the corresponding strain inoculum, which was previously prepared as described in the previous part. […]

The subject of the next assay is C. acnes K8 strain. On the procedure:
as §1, §2, §3, §4, §5, §6, §7, §8, §9, §10, §11, §12

Another assay deals with C. acnes D1 strain. As for the experimental part:
as §1, §2, §3, §4, §5, §6, §7, §8, §9, §10, §11, §12

The next assay concerns C. acnes A1 strain. Conditions: PBS 1% w/v peptone. On the procedure:
as §1, §2, §3, §4, §5, §6, §7, §8, §9, §10, §11, §12

[1] abbreviates: 1% v/v glycerol, PBS 1% w/v peptone, FIG. 1.
Where [2] appears, read: 3% w/v sodium lactate, PBS 1% w/v peptone, FIG. 3.
The mark [3] stands for this setting: 0.075% w/v sodium cetaryl sulphate, PBS 3% w/v glucose, FIG. 5.
The mark [4] stands for this setting: 1% w/v sorbitol, PBS 1% w/v peptone, FIG. 2.

On to `OCC(O)CO` [Glycerol], for which the “improvement of growth compared to the peptone control condition” value is reported as “four” with C. acnes H1 strain (setting [1]); “four” in the assay with C. acnes K8 strain (setting [1]); “four” with C. acnes D1 strain (setting [1]); “four” in the assay with C. acnes A1 strain (1% v/v glycerol, FIG. 1).

As to `CC(O)C(=O)[O-].[Na+]` (stereo not drawn) [Sodium lactate, sodium lactate], the effect on growth entry is listed as “improved the growth” in the assay with C. acnes H1 strain (setting [2]); “improved the growth of the four tested strains, with a higher effect on the strain K8” in the assay on C. acnes K8 strain (setting [2]); “improved the growth” with C. acnes D1 strain (setting [2]); “improved the growth” in the assay with C. acnes A1 strain (3% w/v sodium lactate, FIG. 3).

In the case of “sodium cetearyl sulphate [Sodium cetaryl sulphate]”, the effect on growth entry in the assay with C. acnes H1 strain (setting [3]) is “selectively and significantly improved the growth”; in the assay with C. acnes K8 strain (setting [3]), “Negative effect”; in the assay on C. acnes D1 strain (setting [3]), “selectively and significantly improved the growth”.

As for `OC[C@@H](O)[C@@H](O)[C@H](O)[C@@H](O)CO` [Sorbitol], the “growth improved by a factor” value with C. acnes H1 strain (setting [4]) turned out to be 4.5. Besides, the effect on growth entry was “improved the growth” in the assay on C. acnes K8 strain (setting [4]); “improved the growth” in the assay on C. acnes D1 strain (setting [4]); “improved the growth” in the assay with C. acnes A1 strain (1% w/v sorbitol, FIG. 2).
